Here are results for one substance from PMC9475553, “SHF Acts as a Novel Tumor Suppressor in Glioblastoma Multiforme by Disrupting STAT3 Dimerization” (Advanced Science, 2022).

Type in all cases: cell-based, human
One assay relates to U87 cells. Kind of assay: Cell growth assay (CCK-8), U87. The following applies: n=6. Here is the method: Cell growth was quantified using the Cell Counting Kit‐8 Assay Kit (Bimake, Houston, TX). Each experiment was repeated at least six times. For the colony formation assay, 800 cells were seeded into each well of a six‐well plate with soft agar (Agarose; Sigma, St. Louis, MO) and maintained in a medium containing 10% FBS for 14 days. The colonies were fixed with methanol and stained with 0.1% crystal violet; the clones containing at least 50 cells were counted using an inverted microscope.
Supplementary Fig. 9 C16 inhibits tumor growth and promotes chemosensitivity in vitro.
B. Colony formation of cells treated with SC or C16 (left) and the accompanying statistical
analysis (right; n=6, Student’s t-test, **P < 0.01).
C. Annexin V staining flow cytometry assay of cells simultaneously treated with Dox with SC or
C16 for 48 h (n=3, Student’s t-test, *P < 0.05, **P < 0.01).
(1 picture or pasted object on this page, not shown here)

Assay [1] relates to STAT3 transcriptional activity. In words: STAT3 transcriptional reporter (SIE luciferase) assay in U87 cells. The conditions noted are these: C16 for 12 h, n = 3, p < 0.01. Here is the method:
(§1) Figure 7 Peptide derived from the STAT3‐binding sites of SHF is an effective GBM suppressive strategy. A) Binding model between SHF and STAT3 using ZDOCK server. […] B) IF staining determined the cell penetrability and nuclear‐localization of C16. U251 cells were incubated with C16 or SC for 2 h and performed IF staining using the indicated antibodies. Bars, 10 µm. C) The statical analysis of adsorption equilibrium assay detecting the binding of C16 and SC with recombinant STAT3. D) Pull‐down assay indicating C16 binds STAT3. GST‐STAT3 was incubated with C16 or SC for 2 h, and the pull‐down assay was performed using Anti‐His magnetic beads. E) IP assay showing the effect of C16 on STAT3 dimerization. 293T cells transfected with indicated vectors were incubated with C16 for 2 h. The relative quantification of STAT3 dimerization was listed. F) IP assay detecting the effect of C16 on the interaction of STAT3 and DNMT1. […] The relative quantification of STAT3/DNMT1 interaction was listed. […] The relative quantification of STAT3/DNMT1 interaction was listed. […] Positive cells were quantified 20 randomly selected fields per mouse (n = 6, Student's t‐test, **p < 0.01). […]
STAT3 transcriptional activity was evaluated by a luciferase reporter system according our previously study.^[ [19] ^] […] Cells were collected, lysed, and measured using the Dual‐Glo Luciferase Assay System kit (Promega).

Another assay has as its system STAT3/DNMT1 interaction. In words: IP assay: ectopic STAT3/DNMT1 interaction in 293T cells. The conditions noted are these: 293T cells expressing ectopic STAT3 and DNMT1, C16 for 2 h. Here is the method: as §1
(§2) Immunoprecipitation (IP) experiments were performed to analyze the protein interactions. […] Precipitated products were analyzed by Western blot using the specified antibodies. […]

Assay [2] has as its system STAT3 dimerization. Kind of assay: IP assay: STAT3 dimerization in 293T cells. The following applies: transfected 293T cells incubated with C16 for 2 h. Here is the method:
as §1, §2

Assay [3] has as its system STAT3 dimerization. Kind of assay: FRET assay: STAT3 dimerization in U251 cells. The following applies: U251 cells transfected for 24 h, then C16 2 h; n=3, P < 0.01. Here is the method:
Spectral fluorescence resonance energy transfer (FRET) assay was used to examine the dimerization of STAT3 and interaction between STAT3 and SHF. The procedure was performed as described previously.^[ [46] ^] Briefly, U251 cells were seeded at a density of 20 000 cells/compartment on coverslips coated with 1% poly‐L‐lysine (Sigma) in 24 well‐plates. For detecting SHF inhibiting STAT3 dimerization, ectopic SHF‐expressing stable U251 cells were transfected with STAT3‐DsRed and STAT3‐EGFP. For detecting SHF binding STAT3, U251 cells were transfected with SHF‐DsRed and STAT3‐EGFP. Cells were imaged on a Leica TCS SP8 confocal microscope (40× objective and 10× objective, 488 nm Argon laser line) after 24 h. Cells were excited with 488 nm laser (donor), and the emission of the acceptor DsRed was recorded at 565 nm. The FRET efficiency was calculated on a pixel‐by‐pixel basis with the following equation: FRET efficiency = FRETcorr / (FRETcorr + Donor). […] To increase the reliability of the calculations and prevent noise from distorting the calculated ratio, we excluded pixels below 50 intensity units and saturated pixels from the calculations and set their intensities to zero. […]
Supplementary Fig. 8 Quantitative analysis of normalized FRET ratio in U251 cells (n=3, […]

On to “C16: peptide spanning SHF amino acids 388–421, palmitic acid at the N-terminus, amidated C-terminus, 3× His tags added to the C-terminal (PFSSVPEIVHHYASRKLPIKGAEHMSLLYPVAIR; palmitic acid at the N-terminus; amidated C-terminus; left off: 3× His tags, C-terminal, kept)”, for which, in the assay on U87 cells, the cell growth inhibition entry is given as “inhibited cell growth with concentration dependence”. Moreover, in assay [1], the STAT3 transcriptional activity entry is listed as “significant decrease”. Further, the “ectopic STAT3/DNMT1 interaction” value with STAT3/DNMT1 interaction was “decrease”. Also, the “inhibition of STAT3 dimerization (IP)” value in the assay on STAT3 dimerization [2] was “effectively inhibits STAT3 dimerization”. In addition, the “inhibition of STAT3 dimerization (FRET)” value in the assay with STAT3 dimerization [3] was “effectively inhibits STAT3 dimerization”.
